Series [1] relates to HMC3 (human microglia) cell line. Briefly: pHrodo-myelin phagocytosis/cell viability high content imaging assay: viability (cell count, nuclear area, nuclear intensity). Particulars: 10 μM, HMC3. An outline of the steps:
(§1)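 Immortalized microglia are treated with compound (10 μM, single concentration) for 48 h, the final 20 h alongside pHrodo-myelin. Data are the mean of duplicates, reported as % of untreated control.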

For series [2], the system named is BV2 (mouse microglia) cell line. The description is as above. An outline of the steps:
as §1

Series [3] is described as follows: Kinetic solubility in aqueous buffer pH 7.4 by total chemiluminescent nitrogen determination (Analiza). Particulars: aqueous buffer, pH 7.4, aqueous buffer, kinetic from dmso stock.
Series [4] concerns HMC3 (human microglia) cell line. Put plainly: pHrodo-myelin phagocytosis/cell viability high content imaging assay: phagocytosis signal. The format is cell-based. An outline of the steps: (§2)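 Read by high content imaging: the phagocytosis signal plus viability, measured simultaneously, with three extracted measurements. Imaging was done roughly 22 hours after pHrodo-myelin was added.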

In series [5] the test system is BV2 (mouse microglia) cell line. The series is described as above. The series is classed as cell-based. An outline of the steps:
as §2

≈ marks a conversion by molar mass, not a printed value. Counter-ions that a name gives are not always drawn.

Take `CC(=O)NCC(=O)N1[C@@H]2CC[C@H]1c1ccc(Nc3ncc(C(F)(F)F)c(NC4CCC4)n3)cc12` [PF-03814735 (MolPort-023-219-160)]: the “Human microglial cytotoxicity at 10 μM (<70% control)” value in series [1] is recorded as “Y (The compound was found to be cytotoxic (cell count threshold: <70% control) when human immortalized microglial cells were dosed at 10 μM (Y: yes))”. Moreover, the “Mouse microglial cytotoxicity at 10 μM (<70% control)” value in series [2] (10 μM, BV2) is “Y (The compound was found to be cytotoxic (cell count threshold: <70% control) when murine immortalized microglial cells were dosed at 10 μM (Y: yes))”. The molecule also showed a solubility (kinetic) in series [3] of 159 µM (≈ 75.6 µg/mL). Moreover, the “Inhibition of human microglial phagocytosis at 10 μM (<70% control)” value in series [4] (10 μM, HMC3) was “Y (The compound was found to inhibit phagocytosis (response threshold: <70% control) when human immortalized microglial cells were dosed at 10 μM (Y: yes))”. The “Inhibition of mouse microglial phagocytosis at 10 μM (<70% control)” value in series [5] (10 μM, BV2) was “Y (The compound was found to inhibit phagocytosis (response threshold: <70% control) when murine immortalized microglial cells were dosed at 10 μM (Y: yes))”.
Turning to `O=C(NC1CCNCC1)c1n[nH]cc1NC(=O)c1c(Cl)cccc1Cl` [AT-7519], the “Mouse microglial cytotoxicity at 10 μM (<70% control)” value in series [2] (BV2, 10 μM) is “Y (The compound was found to be cytotoxic (cell count threshold: <70% control) when murine immortalized microglial cells were dosed at 10 μM (Y: yes))”. Further, the kinetic solubility in series [3] was determined as 146 µM (≈ 55.8 µg/mL). For the same molecule, the “Stimulation of human microglial phagocytosis at 10 μM (>150% control)” value in series [4] (HMC3, 10 μM) is reported as “Y (The compound was found to stimulate phagocytosis (response threshold: >150% control) when human immortalized microglial cells were dosed at 10 μM (Y: yes))”. Moreover, the “Inhibition of mouse microglial phagocytosis at 10 μM (<70% control)” value in series [5] (BV2, 10 μM) is “Y (The compound was found to inhibit phagocytosis (response threshold: <70% control) when murine immortalized microglial cells were dosed at 10 μM (Y: yes))”.
On to `CN(C)C/C=C/C(=O)Nc1cc2c(Nc3ccc(F)c(Cl)c3)ncnc2cc1O[C@H]1CCOC1` [Afatinib], for which the “Mouse microglial cytotoxicity at 10 μM (<70% control)” value in series [2] (BV2, 10 μM) is “Y (The compound was found to be cytotoxic (cell count threshold: <70% control) when murine immortalized microglial cells were dosed at 10 μM (Y: yes))”. In addition, in series [3], the solubility (kinetic) stood at 117 µM (≈ 56.7 µg/mL). Also, in series [4] (HMC3, 10 μM), the “Inhibition of human microglial phagocytosis at 10 μM (<70% control)” value is “Y (The compound was found to inhibit phagocytosis (response threshold: <70% control) when human immortalized microglial cells were dosed at 10 μM (Y: yes))”. In series [5] (BV2, 10 μM), the “Inhibition of mouse microglial phagocytosis at 10 μM (<70% control)” value is reported as “Y (The compound was found to inhibit phagocytosis (response threshold: <70% control) when murine immortalized microglial cells were dosed at 10 μM (Y: yes))”.
On to `CO[C@H]1C[C@@H]2CC[C@@H](C)[C@@](O)(O2)C(=O)C(=O)N2CCCC[C@H]2C(=O)O[C@H]([C@H](C)C[C@@H]2CC[C@@H](O)[C@H](OC)C2)CC(=O)[C@H](C)/C=C(\C)[C@@H](O)[C@@H](OC)C(=O)[C@H](C)C[C@H](C)/C=C/C=C/C=C/1C` [Sirolimus], for which the “Mouse microglial cytotoxicity at 10 μM (<70% control)” value in series [2] (10 μM, BV2) is recorded as “Y (The compound was found to be cytotoxic (cell count threshold: <70% control) when murine immortalized microglial cells were dosed at 10 μM (Y: yes))”. In series [3], this molecule showed a solubility (kinetic) of 19.8 µM (≈ 18.1 µg/mL). Moreover, the “Inhibition of human microglial phagocytosis at 10 μM (<70% control)” value in series [4] (10 μM, HMC3) is recorded as “Y (The compound was found to inhibit phagocytosis (response threshold: <70% control) when human immortalized microglial cells were dosed at 10 μM (Y: yes))”. Moreover, the “Stimulation of mouse microglial phagocytosis at 10 μM (>150% control)” value in series [5] (10 μM, BV2) is “Y (The compound was found to stimulate phagocytosis (response threshold: >150% control) when murine immortalized microglial cells were dosed at 10 μM (Y: yes))”.
`O=C(/C=C/c1ccco1)Nc1ncc(Cc2ccccc2)s1` [Compound 1]: the “Mouse microglial cytotoxicity at 10 μM (<70% control)” value in series [2] (10 μM, BV2) was “Y (The compound was found to be cytotoxic (cell count threshold: <70% control) when murine immortalized microglial cells were dosed at 10 μM (Y: yes))”. The solubility (kinetic) in series [3] is under 1.1 µM. Besides, the “Inhibition of human microglial phagocytosis at 10 μM (<70% control)” value in series [4] (10 μM, HMC3) was “Y (The compound was found to inhibit phagocytosis (response threshold: <70% control) when human immortalized microglial cells were dosed at 10 μM (Y: yes))”. In series [5] (10 μM, BV2), the “Inhibition of mouse microglial phagocytosis at 10 μM (<70% control)” value was “Y (The compound was found to inhibit phagocytosis (response threshold: <70% control) when murine immortalized microglial cells were dosed at 10 μM (Y: yes))”.
Turning to `CS[C@@]1(C(=O)Nc2ccc3[nH]nc(-c4ccc(OC(C)C)nc4)c3c2)CCN(CC(=O)N2CC=C(c3ccc(-c4ncn(C)n4)cc3)CC2)C1` [MK-8353], the “Mouse microglial cytotoxicity at 10 μM (<70% control)” value in series [2] (10 μM, BV2) is “Y (The compound was found to be cytotoxic (cell count threshold: <70% control) when murine immortalized microglial cells were dosed at 10 μM (Y: yes))”. In series [3], this molecule yielded a kinetic solubility of 4.8 µM (≈ 3.32 µg/mL). In series [4] (10 μM, HMC3), the “Inhibition of human microglial phagocytosis at 10 μM (<70% control)” value is reported as “Y (The compound was found to inhibit phagocytosis (response threshold: <70% control) when human immortalized microglial cells were dosed at 10 μM (Y: yes))”. Besides, the “Stimulation of mouse microglial phagocytosis at 10 μM (>150% control)” value in series [5] (10 μM, BV2) is recorded as “Y (The compound was found to stimulate phagocytosis (response threshold: >150% control) when murine immortalized microglial cells were dosed at 10 μM (Y: yes))”.
Take `O=S(=O)(c1ccccc1)N(CC(F)(F)F)c1ccc(C(O)(C(F)(F)F)C(F)(F)F)cc1` [T 0901317]: the solubility (kinetic) in series [3] is 40 µM (≈ 19.3 µg/mL). Moreover, the “Inhibition of human microglial phagocytosis at 10 μM (<70% control)” value in series [4] (10 μM, HMC3) is listed as “Y (The compound was found to inhibit phagocytosis (response threshold: <70% control) when human immortalized microglial cells were dosed at 10 μM (Y: yes))”. In series [5] (10 μM, BV2), the “Stimulation of mouse microglial phagocytosis at 10 μM (>150% control)” value is given as “Y (The compound was found to stimulate phagocytosis (response threshold: >150% control) when murine immortalized microglial cells were dosed at 10 μM (Y: yes))”.
Take `COc1ccc(CCCN2CCC(COC(c3ccccc3)c3ccccc3)CC2)cc1` [UK-78282 HCl]: the solubility (kinetic) in series [3] is 796 µM. Besides, in series [4] (10 μM, HMC3), the “Inhibition of human microglial phagocytosis at 10 μM (<70% control)” value is “Y (The compound was found to inhibit phagocytosis (response threshold: <70% control) when human immortalized microglial cells were dosed at 10 μM (Y: yes))”. In addition, in series [5] (10 μM, BV2), the “Stimulation of mouse microglial phagocytosis at 10 μM (>150% control)” value was “Y (The compound was found to stimulate phagocytosis (response threshold: >150% control) when murine immortalized microglial cells were dosed at 10 μM (Y: yes))”.
As for `O=C(Nc1ccc2[nH]nc(-c3ccncc3)c2c1)[C@@H]1CCN(CC(=O)N2CCN(c3ccc(-c4ncccn4)cc3)CC2)C1` [SCH772984], the “Mouse microglial cytotoxicity at 10 μM (<70% control)” value in series [2] (10 μM, BV2) is “Y (The compound was found to be cytotoxic (cell count threshold: <70% control) when murine immortalized microglial cells were dosed at 10 μM (Y: yes))”. The molecule also displayed a solubility (kinetic) in series [3] of 6.2 µM (≈ 3.64 µg/mL). In series [4] (10 μM, HMC3), the “Inhibition of human microglial phagocytosis at 10 μM (<70% control)” value was “Y (The compound was found to inhibit phagocytosis (response threshold: <70% control) when human immortalized microglial cells were dosed at 10 μM (Y: yes))”. Moreover, in series [5] (10 μM, BV2), the “Stimulation of mouse microglial phagocytosis at 10 μM (>150% control)” value is recorded as “Y (The compound was found to stimulate phagocytosis (response threshold: >150% control) when murine immortalized microglial cells were dosed at 10 μM (Y: yes))”.
For the molecule `O=C(O)CCCc1nc(-c2ccc(Cl)c(Cl)c2)c(-c2ccccc2)o1` [SWE101], the kinetic solubility in series [3] was 155 µM (≈ 58.4 µg/mL). Further, in series [4] (HMC3, 10 μM), the “Inhibition of human microglial phagocytosis at 10 μM (<70% control)” value was “Y (The compound was found to inhibit phagocytosis (response threshold: <70% control) when human immortalized microglial cells were dosed at 10 μM (Y: yes))”. Also, the “Stimulation of mouse microglial phagocytosis at 10 μM (>150% control)” value in series [5] (BV2, 10 μM) is “Y (The compound was found to stimulate phagocytosis (response threshold: >150% control) when murine immortalized microglial cells were dosed at 10 μM (Y: yes))”.

In general, kinetic solubility refers to solubility judged after dilution from a stock solution rather than from solid.

These data come from paper PMC9019904, “AD Informer Set: Chemical tools to facilitate Alzheimer's disease drug discovery” (Alzheimer's & Dementia : Translational Research & Clinical …, 2022).
